In patent publication US20130035232A1, “INDUCTION AND STABILIZATION OF ENZYMATIC ACTIVITY IN MICROORGANISMS” (GEORGIA STATE UNIVERSITY RESEARCH FOUNDATION, INC., priority 2010, published 2013):

Key:
[1] = tested on: amidase; experiment: 20 liter fermentation with asparagine feed: amidase; type: cell-based, Rhodococcus sp. DAP 96253; settings: end of 20 liter fermentation; asparagine 0.15M at 1000 μl/min from t=10 hour
Description: Rhodococcus sp. DAP 96253 were grown using biphasic medium as the source of inoculum for a 20 liter fermentation. The supplemental addition of medium/carbohydrate (either YEMEA, dextrose or maltose) was made to the modified R2A medium, containing cottonseed hydrolysate substituted for the Proteos Peptone 3 (PP3). Asparagine (0.15M solution) was added at a continuous rate of 1000 μl/min beginning at t=10 hour. At the end of the fermentation run, 159 units per milligram cell dry weight of acrylonitrile specific nitrile hydratase, 22 units of amidase per milligram cell dry weight, and 16 g/l cell packed wet weight were produced.

[2] = tested on: asparaginase I; experiment: Effect of inducer and media composition on asparaginase I production; type: cell-based, Rhodococcus sp. DAP 96253; settings: Rhodococcus sp. DAP 96253, inducer 1000 ppm
Description: Testing was performed to evaluate the effect on asparaginase I activity based upon the inducer used. In particular, testing was performed using asparagine, glutamine, succinonitrile, and isovaleronitrile as inducers (all added at 1000 ppm each).

`NC(=O)C[C@H](N)C(=O)O` [Asparagine, asparagine] was tested, and the amidase produced [1] was 22 units per milligram cell dry weight, the “Asparaginase I levels, YEMEA - Glucose With Cobalt” value ([2]; YEMEA - Glucose, with cobalt) was 6.5 units/mg cell dry weight and the “Asparaginase I levels, YEMEA - Glucose Without Cobalt” value ([2]; YEMEA - Glucose, without cobalt) was 5.3 units/mg cell dry weight. For the same molecule, the “Asparaginase I levels, YEMEA - Maltose With Cobalt” value ([2]; YEMEA - Maltose, with cobalt) was 24.6 units/mg cell dry weight and the “Asparaginase I levels, YEMEA - Maltose Without Cobalt” value ([2]; YEMEA - Maltose, without cobalt) was 8.7 units/mg cell dry weight.
